The subject of test [1] is peptide-specific CTL precursors in PBMCs. Put plainly: Peptide-specific CTL precursor assay (IFN-γ production of peptide-stimulated PBMCs), Example 1.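 On all read-outs here: PBMCs cultured with each peptide at 10 µM, restimulated at 20 µM every 3 days up to 12 days, then 18 hr with peptide-pulsed target cells, IFN-γ by ELISA.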 In kind it is cell-based, human. Further details: key to Cellular response to peptide during the combination therapy, 12th / Cellular response to peptide during the combination therapy, 6th / Cellular response to peptide during the combination therapy, Pre: Ar: p* ≦ 0.1 and 500 ≦ net**; A: p ≦ 0.05 and 50 ≦ net; B: p ≦ 0.05 and 25 ≦ net < 50; C: 0.05 < p < 0.1 and 50 ≦ net; AAAA: all four wells of quadruplicate assay were positive; AAA: three wells of quadruplicate assay were positive; AA: two wells of quadruplicate assay were positive. The settings on record: PBMCs of the individual case; for Cellular response to peptide during the combination therapy, 6th: after 6th vaccination; for Cellular response to peptide during the combination therapy, 12th: after 12th vaccination; for Cellular response to peptide during the combination therapy, 18th: after 18th vaccination; for Cellular response to peptide during the combination therapy, Pre: before combination therapy, grade of each positive well of quadruplicate IFN-γ assay.
Procedure: Before the first vaccination and 7 days after every 6th vaccination, 30 ml of peripheral blood was obtained, and PBMCs were isolated by means of Ficoll-Conray density gradient centrifugation. Peptide-specific CTL precursors in PBMCs were detected using a previously reported culture method [24]. Briefly, PBMCs (1×10^5 cells/well) were incubated with 10 μM of each peptide in U-bottom-type 96-well microculture plates (Nunc, Roskilde, Denmark) in 200 μl of culture medium. The culture medium contained 45% RPMI-1640 medium, 45% AIM-V™ medium (Invitrogen Corp., Carlsbad, Calif.), 10% FCS, 100 U/ml of interleukin-2 (IL-2) and 0.1 mM MEM nonessential amino acid solution (Invitrogen Corp.). Half of the medium was removed and replaced with the new medium containing a corresponding peptide (20 μM) every 3 days for up to 12 days. […] The target cells (C1R-A2402 or T2, 1×10^4/well) were pulsed with each peptide (10 μM) for 2 hr, and then effector cells (1×10^5/well) were added to each well with the final volume of 200 μl. After incubation for 18 hr, the supernatants (100 μl) were collected, and the amounts of IFN-γ were measured using an enzyme-linked immuno-sorbent assay (ELISA) (limit of sensitivity: 10 pg/ml). All experiments were performed in the four different wells with duplicate assays. […] Peptides were chosen based upon evaluation of all 4 wells by the order shown above.
Peptide-specific CTL precursors in PBMCs were detected using a previously reported culture method [24], while an ELISA was used to detect the serum IgG levels specific for the peptides administrated, as reported previously [13-15]. […] Namely, PBMCs were harvested every 2 weeks and were cultured (10^4 cells/well) for 2 days in triplicate assays with 10 μl M of phytohemagglutinin (PHA), 10 ng/ml of Epstein-Bar virus (EBV)-derived peptide with HLA-A24 or -A2 binding motif, and 10 ng/ml of two different peptides under vaccination. After 2 days in culture, the amounts of IFN-γ in cell free supernatants were measured in triplicate assays, and viable cell numbers were also counted. To avoid biases in each assay, all the PBMCs were once cryopreserved and the four different PBMCs (two from healthy donors, one from patients PBMCs harvested 2 weeks before the latest vaccination, and one from the latest vaccination) were thawed at the same time in the morning of the experiment. The PBMCs from healthy donors were from the same donors throughout the series of immunological monitoring. Responses (IFN-γ production) to PHA, EBV-peptide, and the vaccinated peptides were considered to be mediated by resting T cells, memory T cells, and activated T cells, respectively.

Another test has as its system peptide-specific IgG. Briefly: ELISA of serum IgG specific for the administered peptides, Example 1. In kind it is in vivo, human. Further details: key: −: absent; +: present, low titer; ++: present, high titer. As to conditions: serum of the individual case; for Anti-peptide IgG during the combination therapy, 6th: after 6th vaccination; for Anti-peptide IgG during the combination therapy, 12th: after 12th vaccination; for Anti-peptide IgG during the combination therapy, 18th: after 18th vaccination; for Anti-peptide IgG during the combination therapy, Pre: before combination therapy.

“And” between values parts separate entries of the source, which are not always exact repeats. Equal entries are not always repeated. “Also recorded” adds a separate entry of the source.

For the sequence EYCLKFTKL [ART 1170-179], in test [1], the “Cellular response to peptide during the combination therapy, 6th” value (shortened to “Cellular response … 6th”) was “C (0.05 < p < 0.1 and 50 ≦ net); also recorded: A (p ≦ 0.05 and 50 ≦ net)”; the “Cellular response to peptide during the combination therapy, 12th” value (“Cellular response … 12th” for short) is reported as “AAA”; the “Cellular response to peptide during the combination therapy, 18th” value (shortened to “Cellular response … 18th”) is “A (p ≦ 0.05 and 50 ≦ net)”; the “Cellular response to peptide during the combination therapy, Pre” value (“Cellular response … Pre” below) was “A (p ≦ 0.05 and 50 ≦ net)”. For the same sequence, in the test with peptide-specific IgG, the “Anti-peptide IgG during the combination therapy, 6th” value was “++”; the “Anti-peptide IgG during the combination therapy, 12th” value is reported as “++”; the “Anti-peptide IgG during the combination therapy, 18th” value is recorded as “++”; the “Anti-peptide IgG during the combination therapy, Pre” value is given as “++”.
Take GLLFLHTRTI [ppMAPkkk294-302]: in test [1], the “Cellular response … 6th” value is “C (0.05 < p < 0.1 and 50 ≦ net)”; the “Cellular response … 12th” value was “C (0.05 < p < 0.1 and 50 ≦ net)”; the “Cellular response … 18th” value is listed as “ArArAA”; the “Cellular response … Pre” value is “A (p ≦ 0.05 and 50 ≦ net)”. For the same sequence, in the test on peptide-specific IgG, the “Anti-peptide IgG during the combination therapy, 6th” value is “+ and − (2×) and ++”; the “Anti-peptide IgG during the combination therapy, 12th” value is “+ and − and ++”; the “Anti-peptide IgG during the combination therapy, 18th” value was “+ and −”; the “Anti-peptide IgG during the combination therapy, Pre” value was “− (3×) and +”.
Turning to RLQEWCSVI [UBE2V43-51], in test [1], the “Cellular response … 6th” value is “ACC and AA”; the “Cellular response … 12th” value was “ArArArA; also recorded: A (p ≦ 0.05 and 50 ≦ net); also recorded: C (0.05 < p < 0.1 and 50 ≦ net)”; the “Cellular response … Pre” value is “AAA and AAAB and ArA”. Besides, in the test with peptide-specific IgG, the “Anti-peptide IgG during the combination therapy, 6th” value is “++ (3×) and +”; the “Anti-peptide IgG during the combination therapy, 12th” value is recorded as “++”; the “Anti-peptide IgG during the combination therapy, Pre” value is “++ and − (2×) and +”.
As to DLLSHAFFAI [ppMAPkkk432-440], in test [1], the “Cellular response … 6th” value was “C (0.05 < p < 0.1 and 50 ≦ net); also recorded: A (p ≦ 0.05 and 50 ≦ net)”; the “Cellular response … Pre” value was “ArA and A (p ≦ 0.05 and 50 ≦ net)”. In the test on peptide-specific IgG, the “Anti-peptide IgG during the combination therapy, 6th” value is “++ and − (2×) and +”; the “Anti-peptide IgG during the combination therapy, 12th” value is “++ and + (2×)”; the “Anti-peptide IgG during the combination therapy, 18th” value is listed as “+”; the “Anti-peptide IgG during the combination therapy, Pre” value was “+ and − (3×)”.
Turning to ILGELREKV [WHSC2141-], in the test on peptide-specific IgG, the “Anti-peptide IgG during the combination therapy, 6th” value is “−”; the “Anti-peptide IgG during the combination therapy, 12th” value is on record as “−”; the “Anti-peptide IgG during the combination therapy, Pre” value is “−”.
For the sequence NVLHFFNAPL [HNRPL501-510], in test [1], the “Cellular response … 6th” value is “AAA and ArArArAr”; the “Cellular response … 12th” value is “ArArAc; also recorded: ArArAr”; the “Cellular response … 18th” value is given as “ArA”; the “Cellular response … Pre” value was “A (p ≦ 0.05 and 50 ≦ net) and ArAr”. In addition, in the test with peptide-specific IgG, the “Anti-peptide IgG during the combination therapy, 6th” value is “++ and − (2×) and +”; the “Anti-peptide IgG during the combination therapy, 12th” value was “++ (2×) and −”; the “Anti-peptide IgG during the combination therapy, 18th” value was “+”; the “Anti-peptide IgG during the combination therapy, Pre” value is “− (3×) and +”.
As to LIADFLSGLI [UBE2V85-93], the “Cellular response … 12th” value in test [1] is “A (p ≦ 0.05 and 50 ≦ net)”. For the same sequence, in the test on peptide-specific IgG, the “Anti-peptide IgG during the combination therapy, 6th” value was “−”; the “Anti-peptide IgG during the combination therapy, 12th” value is listed as “+”; the “Anti-peptide IgG during the combination therapy, 18th” value is given as “+”; the “Anti-peptide IgG during the combination therapy, Pre” value is listed as “−”.
Turning to DFMIQGGDF [CyB91-99], the “Cellular response … 6th” value in test [1] was “C (0.05 < p < 0.1 and 50 ≦ net)”. Further, in the test on peptide-specific IgG, the “Anti-peptide IgG during the combination therapy, 6th” value was “−” and the “Anti-peptide IgG during the combination therapy, Pre” value is given as “−”.
With ASLDSDPWV [WHSC2103-111], in the test with peptide-specific IgG, the “Anti-peptide IgG during the combination therapy, 6th” value is on record as “−” and the “Anti-peptide IgG during the combination therapy, Pre” value is “−”.

(Values after patent US7718614B2 (Kurume University, priority 2003, dated 2010).)
